Results taken from ChEMBL document CHEMBL6083280, “De Novo Discovery of a Noncovalent Cell-Penetrating Bicyclic Peptide Inhibitor Targeting SARS-CoV-2 Main Protease” (J Med Chem, 2024).
Activity calls are given as the source filed them. The calls are words filed in the database; no cut-off is given here. Positions of bridges follow the written chain, without caps; N, C: chain ends. Residues, ends and D or L forms follow the SMILES beside them.

Legend:
[1] = target: T1, Replicase polyprotein 1ab (Severe acute respiratory syndrome coronavirus 2, UniProt P0DTD1); experiment: Binding affinity to N-terminal his-tagged SARS-CoV-2 Main protease expressed in Escherichia coli BL21 (DE3) assessed as dissociation constant by ITC analysis
SARS-CoV-2 = experiment: Antiviral activity against SARS-CoV-2 infected in human Caco-2 cells assessed as inhibition of viral infection preincubated for 1 hr followed by viral infection measured after 48 hrs by CQ1 confocal quantitative image cytometer analysis; assay type: functional, organism-based; conditions: for Activity: Severe acute respiratory syndrome coronavirus 2, time 49.0 hrs; for EC50: Severe acute respiratory syndrome coronavirus 2, Caco-2
[2] = target: T1, Replicase polyprotein 1ab; experiment: Inhibition of N-terminal his-tagged SARS-CoV-2 Main protease expressed in Escherichia coli BL21 (DE3) using Dabcyl-TSAVLWSGFRICMK-Edans as substrate preincubated for 10 mins by microplate reader analysis

Row | SMILES | Kd [1] | Activity (SARS-CoV-2) | IC50 [2] | EC50 (SARS-CoV-2)
1 | CC[C@H](C)[C@@H]1NC(=O)[C@@H](Cc2ccc(O)cc2)NC(=O)CSC[C@@H](C(=O)NCC(N)=O)NC(=O)[C@@H]2CCCN2C(=O)[C@H](CC(C)C)NC(=O)[C@H](CC(C)C)NC(=O)[C@H]([C@@H](C)O)NC(=O)[C@H](CC(N)=O)NC(=O)CNC(=O)[C@H](CO)NC(=O)[C@H](C)NC(=O)[C@H](Cc2ccccc2)NC(=O)[C@H](CCCNC(=N)N)NC1=O | 4800 nM | inactive | 250 nM | –
2 | CC(C)C[C@@H]1NC(=O)[C@H](Cc2ccccc2)NC(=O)[C@@H]2CCCN2C(=O)[C@H]([C@@H](C)O)NC(=O)[C@H]([C@@H](C)O)NC(=O)[C@H]([C@@H](C)O)NC(=O)[C@H](Cc2c[nH]cn2)NC(=O)[C@H](Cc2ccccc2)NC(=O)[C@H]([C@@H](C)O)NC(=O)[C@H](C(C)C)NC(=O)[C@@H](Cc2ccc(O)cc2)NC(=O)CSC[C@@H](C(=O)NCC(N)=O)NC(=O)[C@H](C)NC(=O)[C@@H]2CCCN2C1=O | – | – | 1930 nM | –
3 | CC(C)C[C@@H]1NC(=O)[C@H](Cc2ccccc2)NC(=O)[C@@H]2CCCN2C(=O)[C@H]([C@@H](C)O)NC(=O)[C@H]([C@@H](C)O)NC(=O)[C@H]([C@@H](C)O)NC(=O)[C@H](Cc2c[nH]cn2)NC(=O)[C@H](Cc2cccc(F)c2)NC(=O)[C@H]([C@@H](C)O)NC(=O)[C@H](C(C)C)NC(=O)[C@@H](Cc2ccc(O)cc2)NC(=O)CSC[C@@H](C(=O)NCC(N)=O)NC(=O)[C@@H]2CCCN2C(=O)[C@@H]2CCCN2C1=O | – | – | 250 nM | > 100000 nM
4 | CC(C)C[C@@H]1NC(=O)[C@H](Cc2ccccc2)NC(=O)[C@@H]2CCCN2C(=O)[C@H]([C@@H](C)O)NC(=O)[C@H]([C@@H](C)O)NC(=O)[C@H]([C@@H](C)O)NC(=O)[C@H](Cc2c[nH]cn2)NC(=O)[C@H](Cc2ccccc2)NC(=O)[C@H]([C@@H](C)O)NC(=O)[C@H](C(C)C)NC(=O)[C@@H](Cc2ccc(O)cc2)NC(=O)CC[C@@H](C(=O)NCC(N)=O)NC(=O)[C@@H]2CCCN2C(=O)[C@@H]2CCCN2C1=O | – | – | 150 nM | > 100000 nM
5 | CC(C)C[C@@H]1NC(=O)[C@H](Cc2ccccc2)NC(=O)[C@@H]2CCCN2C(=O)[C@H]([C@@H](C)O)NC(=O)[C@H]([C@@H](C)O)NC(=O)[C@H]([C@@H](C)O)NC(=O)[C@H](Cc2c[nH]cn2)NC(=O)[C@H](C)NC(=O)[C@H]([C@@H](C)O)NC(=O)[C@H](C(C)C)NC(=O)[C@@H](Cc2ccc(O)cc2)NC(=O)CSC[C@@H](C(=O)NCC(N)=O)NC(=O)[C@@H]2CCCN2C(=O)[C@@H]2CCCN2C1=O | – | – | > 10000 nM | –
6 | CC(C)C[C@@H]1NC(=O)[C@H](Cc2ccccc2)NC(=O)[C@@H]2CCCN2C(=O)[C@H]([C@@H](C)O)NC(=O)[C@H]([C@@H](C)O)NC(=O)[C@H]([C@@H](C)O)NC(=O)[C@H](Cc2c[nH]cn2)NC(=O)[C@H](Cc2ccccc2)NC(=O)[C@H]([C@@H](C)O)NC(=O)[C@H](C)NC(=O)[C@@H](Cc2ccc(O)cc2)NC(=O)CSC[C@@H](C(=O)NCC(N)=O)NC(=O)[C@@H]2CCCN2C(=O)[C@@H]2CCCN2C1=O | – | – | > 10000 nM | –
7 | CC(C)[C@@H]1NC(=O)[C@@H](Cc2ccc(O)cc2)NC(=O)CSC[C@@H](C(=O)NCC(N)=O)NC(=O)[C@@H]2CCCN2C(=O)[C@@H]2CCCN2C(=O)[C@H](C)NC(=O)[C@H](Cc2ccccc2)NC(=O)[C@@H]2CCCN2C(=O)[C@H]([C@@H](C)O)NC(=O)[C@H]([C@@H](C)O)NC(=O)[C@H]([C@@H](C)O)NC(=O)[C@H](Cc2c[nH]cn2)NC(=O)[C@H](Cc2ccccc2)NC(=O)[C@H]([C@@H](C)O)NC1=O | – | – | 370 nM | –
8 | CC[C@H](C)[C@@H]1NC(=O)[C@H](Cc2c[nH]cn2)NC(=O)[C@H](CO)NC(=O)[C@H](Cc2ccccc2)NC(=O)[C@H](Cc2ccc(O)cc2)NC(=O)[C@H](CCC(N)=O)NC(=O)[C@H]([C@@H](C)O)NC(=O)[C@H](Cc2ccc(O)cc2)NC(=O)CSC[C@@H](C(=O)N[C@@H](CO)C(=O)N[C@@H](CO)C(=O)N[C@@H](CCCNC(=N)N)C(=O)N[C@@H](CO)C(=O)NCC(N)=O)NC1=O ({CH2CO}-YTQYFSHICSSRSG-NH2; thioether N-9) | – | – | > 100000 nM | –
9 | CC(C)C[C@@H]1NC(=O)[C@H](Cc2ccccc2)NC(=O)[C@H](C)NC(=O)[C@H]([C@@H](C)O)NC(=O)[C@H]([C@@H](C)O)NC(=O)[C@H]([C@@H](C)O)NC(=O)[C@H](Cc2c[nH]cn2)NC(=O)[C@H](Cc2ccccc2)NC(=O)[C@H]([C@@H](C)O)NC(=O)[C@H](C(C)C)NC(=O)[C@@H](Cc2ccc(O)cc2)NC(=O)CSC[C@@H](C(=O)NCC(N)=O)NC(=O)[C@@H]2CCCN2C(=O)[C@@H]2CCCN2C1=O | – | – | 390 nM | –
10 | CC[C@H](C)[C@@H]1NC(=O)[C@@H](Cc2ccc(O)cc2)NC(=O)CSC[C@@H](C(N)=O)NC(=O)[C@H](C(C)C)NC(=O)[C@H](CC(C)C)NC(=O)[C@@H]2CCCN2C(=O)[C@H](Cc2ccccc2)NC(=O)[C@H]([C@@H](C)O)NC(=O)[C@H](CCC(N)=O)NC1=O | – | inactive | 1400 nM | –
11 | CC(C)C[C@@H]1NC(=O)[C@H](Cc2ccccc2)NC(=O)[C@@H]2CCCN2C(=O)[C@H]([C@@H](C)O)NC(=O)[C@H]([C@@H](C)O)NC(=O)[C@H]([C@@H](C)O)NC(=O)[C@H](C)NC(=O)[C@H](Cc2ccccc2)NC(=O)[C@H]([C@@H](C)O)NC(=O)[C@H](C(C)C)NC(=O)[C@@H](Cc2ccc(O)cc2)NC(=O)CSC[C@@H](C(=O)NCC(N)=O)NC(=O)[C@@H]2CCCN2C(=O)[C@@H]2CCCN2C1=O | – | – | > 10000 nM | –
12 | CC(C)[C@@H]1NC(=O)[C@@H](Cc2ccc(O)cc2)NC(=O)CC[C@@H](C(N)=O)NC(=O)[C@@H]2CCCN2C(=O)[C@@H]2CCCN2C(=O)[C@@H]2CSc3c(F)c(F)c(c(F)c3F)SC[C@H](NC1=O)C(=O)N[C@@H](Cc1ccccc1)C(=O)N[C@@H](Cc1c[nH]cn1)C(=O)N[C@@H]([C@@H](C)O)C(=O)N[C@@H]([C@@H](C)O)C(=O)N[C@@H]([C@@H](C)O)C(=O)N1CCC[C@H]1C(=O)N[C@@H](Cc1ccccc1)C(=O)N2 | – | – | 16600 nM | > 100000 nM
13 | CC(C)C[C@@H]1NC(=O)[C@H](C)NC(=O)[C@@H]2CCCN2C(=O)[C@H]([C@@H](C)O)NC(=O)[C@H]([C@@H](C)O)NC(=O)[C@H]([C@@H](C)O)NC(=O)[C@H](Cc2c[nH]cn2)NC(=O)[C@H](Cc2ccccc2)NC(=O)[C@H]([C@@H](C)O)NC(=O)[C@H](C(C)C)NC(=O)[C@@H](Cc2ccc(O)cc2)NC(=O)CSC[C@@H](C(=O)NCC(N)=O)NC(=O)[C@@H]2CCCN2C(=O)[C@@H]2CCCN2C1=O | – | – | 5780 nM | –
14 | CC(C)C[C@@H]1NC(=O)[C@H](Cc2ccccc2)NC(=O)[C@@H]2CCCN2C(=O)[C@H]([C@@H](C)O)NC(=O)[C@H](C)NC(=O)[C@H]([C@@H](C)O)NC(=O)[C@H](Cc2c[nH]cn2)NC(=O)[C@H](Cc2ccccc2)NC(=O)[C@H]([C@@H](C)O)NC(=O)[C@H](C(C)C)NC(=O)[C@@H](Cc2ccc(O)cc2)NC(=O)CSC[C@@H](C(=O)NCC(N)=O)NC(=O)[C@@H]2CCCN2C(=O)[C@@H]2CCCN2C1=O | – | – | 200 nM | –
15 | CC(C)C[C@@H]1NC(=O)[C@H](Cc2ccccc2)NC(=O)[C@@H]2CCCN2C(=O)[C@H](C)NC(=O)[C@H]([C@@H](C)O)NC(=O)[C@H]([C@@H](C)O)NC(=O)[C@H](Cc2c[nH]cn2)NC(=O)[C@H](Cc2ccccc2)NC(=O)[C@H]([C@@H](C)O)NC(=O)[C@H](C(C)C)NC(=O)[C@@H](Cc2ccc(O)cc2)NC(=O)CSC[C@@H](C(=O)NCC(N)=O)NC(=O)[C@@H]2CCCN2C(=O)[C@@H]2CCCN2C1=O | – | – | 220 nM | –
16 | CC(C)C[C@@H]1NC(=O)[C@H](Cc2ccccc2)NC(=O)[C@@H]2CCCN2C(=O)[C@H]([C@@H](C)O)NC(=O)[C@H]([C@@H](C)O)NC(=O)[C@H]([C@@H](C)O)NC(=O)[C@H](Cc2c[nH]cn2)NC(=O)[C@H](Cc2ccccc2)NC(=O)[C@H]([C@@H](C)O)NC(=O)[C@H](C(C)C)NC(=O)[C@@H](Cc2ccc(O)cc2)NC(=O)CSC[C@@H](C(=O)NCC(N)=O)NC(=O)[C@@H]2CCCN2C(=O)[C@H](C)NC1=O | – | – | 610 nM | –
17 | CC[C@H](C)[C@@H]1NC(=O)[C@@H](Cc2ccc(O)cc2)NC(=O)CSC[C@@H](C(N)=O)NC(=O)[C@H]([C@@H](C)CC)NC(=O)[C@@H]2CCCN2C(=O)[C@@H]2CCCN2C(=O)[C@H](Cc2ccccc2)NC(=O)[C@H](CO)NC(=O)[C@H](CCC(N)=O)NC1=O | – | inactive | 1400 nM | –
18 | CC(C)C[C@@H]1NC(=O)[C@H](Cc2ccccc2)NC(=O)[C@@H]2CCCN2C(=O)[C@H]([C@@H](C)O)NC(=O)[C@H]([C@@H](C)O)NC(=O)[C@H]([C@@H](C)O)NC(=O)[C@H](Cc2c[nH]cn2)NC(=O)[C@H](Cc2ccccc2)NC(=O)[C@H](C)NC(=O)[C@H](C(C)C)NC(=O)[C@@H](Cc2ccc(O)cc2)NC(=O)CSC[C@@H](C(=O)NCC(N)=O)NC(=O)[C@@H]2CCCN2C(=O)[C@@H]2CCCN2C1=O | – | – | 1650 nM | –
19 | CC[C@H](C)[C@@H]1NC(=O)[C@@H](Cc2ccc(O)cc2)NC(=O)CSC[C@@H](C(N)=O)NC(=O)[C@H](C(C)C)NC(=O)[C@H](CC(C)C)NC(=O)[C@@H]2CCCN2C(=O)[C@H](Cc2ccccc2)NC(=O)[C@H]([C@@H](C)O)NC(=O)[C@H](Cc2c[nH]cn2)NC1=O | – | inactive | 1400 nM | –
20 | CC(C)[C@@H]1NC(=O)[C@@H](Cc2ccc(O)cc2)NC(=O)CC[C@@H](C(=O)NCC(N)=O)NC(=O)[C@@H]2CCCN2C(=O)[C@@H]2CCCN2C(=O)[C@@H]2CSCc3cccc(c3)CSC[C@H](NC1=O)C(=O)N[C@@H](Cc1ccccc1)C(=O)N[C@@H](Cc1c[nH]cn1)C(=O)N[C@@H]([C@@H](C)O)C(=O)N[C@@H]([C@@H](C)O)C(=O)N[C@@H]([C@@H](C)O)C(=O)N1CCC[C@H]1C(=O)N[C@@H](Cc1ccccc1)C(=O)N2 | – | – | 440 nM | > 100000 nM
21 | CC(C)C[C@@H]1NC(=O)[C@H](Cc2ccccc2)NC(=O)[C@@H]2CCCN2C(=O)[C@H]([C@@H](C)O)NC(=O)[C@H]([C@@H](C)O)NC(=O)[C@H](C)NC(=O)[C@H](Cc2c[nH]cn2)NC(=O)[C@H](Cc2ccccc2)NC(=O)[C@H]([C@@H](C)O)NC(=O)[C@H](C(C)C)NC(=O)[C@@H](Cc2ccc(O)cc2)NC(=O)CSC[C@@H](C(=O)NCC(N)=O)NC(=O)[C@@H]2CCCN2C(=O)[C@@H]2CCCN2C1=O | – | – | 510 nM | –
